Like-named read-outs stand apart in the source and are kept apart here.
Molecular target: MCH receptor (Macaca fascicularis, UniProt A0A2K5VT41)
Test: Calcium mobilization assay (Example 6)
Assay type: cell-based, Cynomolgus macaque
Excerpt: This Example illustrates a representative functional assay for monitoring the response of cells expressing melanin concentrating hormone receptors to melanin concentrating hormone. This assay can also be used to determine if test compounds act as agonists or antagonists of melanin concentrating hormone receptors.
Chinese Hamster Ovary (CHO) cells (American Type Culture Collection; Manassas, Va.) are stably transfected with the MCH expression vector via calcium phosphate precipitation, and are grown to a density of 15,000 cells/well in FALCON™ black-walled, clear-bottomed 96-well plates (#3904, BECTON-DICKINSON, Franklin Lakes, N.J.) in Ham's F12 culture medium (MEDIATECH, Herndon, Va.) supplemented with 10% fetal bovine serum, 25 mM HEPES and 500 μg/mL (active) G418. Prior to running the assay, the culture medium is emptied from the 96 well plates. […]
Fluorescence response is monitored upon the addition of either […] or test compound by a FLIPR™ plate reader (Molecular Devices, Sunnyvale, Calif.) by excitation at 480 nm and emission at 530 nm.
In order to measure the ability of a test compound to antagonize the response of cells expressing MCH receptors to MCH, the EC50 of MCH is first determined. […]
Test compounds are dissolved in DMSO, diluted in 20 μL KRH buffer, and added to cells prepared as described above. […] Just prior to determining the fluorescence response, 100 μL human MCH diluted in KRH buffer to 2×EC50 is automatically added by the FLIPR instrument to each well of the 96 well plate for a final sample volume of 200 μL and a final MCH concentration of EC50. […] Typically, antagonists of the MCH receptor decrease the fluorescence response by about 20%, preferably by about 50%, and most preferably by at least 80% as compared to matched controls. IC50 values for MCHR antagonists are determined using SIGMAPLOT software (SPSS Inc., Chicago, Ill.) and standard techniques. […]

MCH receptor, sequence (A0A2K5VT41 70-422): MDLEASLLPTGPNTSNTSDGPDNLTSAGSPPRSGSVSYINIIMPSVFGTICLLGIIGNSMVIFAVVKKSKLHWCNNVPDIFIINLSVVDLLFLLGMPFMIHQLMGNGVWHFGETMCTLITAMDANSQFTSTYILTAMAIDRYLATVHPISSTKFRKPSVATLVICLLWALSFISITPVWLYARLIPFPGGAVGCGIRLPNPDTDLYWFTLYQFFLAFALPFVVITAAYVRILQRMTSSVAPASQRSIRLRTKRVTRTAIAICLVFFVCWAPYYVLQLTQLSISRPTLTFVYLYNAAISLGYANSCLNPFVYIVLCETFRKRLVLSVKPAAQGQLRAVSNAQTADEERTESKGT

| SMILES | EC50 [nM] | EC50 (calcium mobilization (FLIPR, Fluo-3) in CHO cells stably transfected with the MCH expression vector, read-out: EC50, determined as described in Example 6) [nM] |
| --- | --- | --- |
| COc1cc(N2CCN(C(C)c3ccnc(C)c3C)CC2)ccc1Cl (stereo not drawn) [Example 1, 1-(4-chloro-3-methoxyphenyl)-4-[1-(2,3-dimethylpyridin-4-yl)-ethyl]-piperazine] | < 1000 | – |
| COc1cc(N2CCN(C(C)c3ccnc4ccccc34)CC2)ccc1Cl (stereo not drawn) [Example 2, 4-{1-[4-(4-chloro-3-methoxyphenyl)piperazin-1-yl]ethyl}quinoline] | < 1000 | – |
| Cc1nccc(CN2CCC(O)(c3ccc(Cl)c(C(F)(F)F)c3)CC2)c1C [Example 3, 4-(4-chloro-3-trifluoromethylphenyl)-1-(2,3-dimethyl-pyridin-4-ylmethyl)-piperidin-4-ol] | – | < 1000 |

Source: US20050239791A1, “Substituted 1-heteroaryl-4-substituted piperazine and piperidine analogues” (priority 2004, published 2005)
